Results taken from article PMC4187893, “Biochemical and Antiparasitic Properties of Inhibitors of the Plasmodium falciparum Calcium-Dependent Protein Kinase PfCDPK1” (Antimicrobial Agents and Chemotherapy, 2014).
Where two headings read alike, the source gives them in different places.

Legend:
[1] = parameters: method as in PMID 24689770; conditions: cited from earlier work
[2] = biological target: PvCDPK1 (Plasmodium vivax, UniProt A5KBU9); experiment: Rh-ParM ADP sensor IC50 assay, PvCDPK1; conditions: for IC50: read-out: IC50 PvCDPK1, Rh-ParM, absence of MTIP, mean (SD)
[3] = biological target: PbCDPK1 (Plasmodium berghei, UniProt A0A509AHB6); experiment: Rh-ParM ADP sensor IC50 assay, PbCDPK1; conditions: for IC50: read-out: IC50 PbCDPK1, Rh-ParM, absence of MTIP, mean (SD)
[4] = biological target: T1, PfCDPK1 (Plasmodium falciparum, UniProt P62344); conditions: absence of MTIP; for IC50: mean (SD), n = 2
[5] = biological target: T1, PfCDPK1; experiment: Kinase-Glo Plus ATP depletion assay; conditions: read-out: IC50 ATP depletion, ATP and MTIP at their respective Km values
[6] = biological target: T1, PfCDPK1; experiment: Radiometric assay, incorporation of 33P into MTIP; conditions: for IC50 ratio (ATP depletion/radiometric assay): Kinase-Glo Plus IC50 / radiometric IC50; for IC50: read-out: IC50 Radiometric assay, ATP and MTIP at their respective Km values
[7] = test system: P. falciparum 3D7; experiment: FACS assay for parasite growth; conditions: Plasmodium falciparum, 3D7, 48 h, read-out: mean EC50, positive controls in parasite growth assay
[8] = read-out: IC50 With 30 μM ATP, 30 μM ATP, Rh-ParM ADP detection
[9] = read-out: IC50 With 1 mM ATP, 1 mM ATP, Rh-ParM ADP detection
[10] = read-out: IC50 PfCDPK1, Rh-ParM, ATP at Km

T1 sequence (P62344 whole entry): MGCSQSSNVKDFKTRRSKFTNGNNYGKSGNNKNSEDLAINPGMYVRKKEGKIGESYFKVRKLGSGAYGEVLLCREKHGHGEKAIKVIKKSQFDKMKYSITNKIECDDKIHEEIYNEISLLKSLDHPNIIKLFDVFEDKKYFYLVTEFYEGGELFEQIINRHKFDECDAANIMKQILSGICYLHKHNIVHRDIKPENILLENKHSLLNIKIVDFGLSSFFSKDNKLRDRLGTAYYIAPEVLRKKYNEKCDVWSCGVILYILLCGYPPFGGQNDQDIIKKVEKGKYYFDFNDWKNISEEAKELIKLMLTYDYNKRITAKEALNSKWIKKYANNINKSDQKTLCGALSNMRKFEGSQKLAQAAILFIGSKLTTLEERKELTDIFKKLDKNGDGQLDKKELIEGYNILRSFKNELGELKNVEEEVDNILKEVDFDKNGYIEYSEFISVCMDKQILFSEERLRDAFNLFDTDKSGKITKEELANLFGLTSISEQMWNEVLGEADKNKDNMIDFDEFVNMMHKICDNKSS
Sequence of PbCDPK1 (A0A509AHB6 whole entry): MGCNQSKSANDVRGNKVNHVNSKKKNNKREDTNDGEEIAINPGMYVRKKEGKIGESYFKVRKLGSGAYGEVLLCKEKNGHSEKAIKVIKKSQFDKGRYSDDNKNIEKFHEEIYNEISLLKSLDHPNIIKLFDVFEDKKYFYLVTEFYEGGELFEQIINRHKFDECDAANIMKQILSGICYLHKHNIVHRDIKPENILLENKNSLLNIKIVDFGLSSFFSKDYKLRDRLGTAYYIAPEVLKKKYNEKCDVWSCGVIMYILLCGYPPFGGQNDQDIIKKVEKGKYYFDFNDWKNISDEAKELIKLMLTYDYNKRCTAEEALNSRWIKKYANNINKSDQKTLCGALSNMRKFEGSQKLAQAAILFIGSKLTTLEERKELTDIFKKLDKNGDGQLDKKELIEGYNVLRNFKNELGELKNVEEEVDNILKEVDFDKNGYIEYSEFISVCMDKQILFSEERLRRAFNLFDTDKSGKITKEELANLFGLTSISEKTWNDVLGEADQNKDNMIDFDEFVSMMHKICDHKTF
Sequence of PvCDPK1 (A5KBU9 entry or part of it): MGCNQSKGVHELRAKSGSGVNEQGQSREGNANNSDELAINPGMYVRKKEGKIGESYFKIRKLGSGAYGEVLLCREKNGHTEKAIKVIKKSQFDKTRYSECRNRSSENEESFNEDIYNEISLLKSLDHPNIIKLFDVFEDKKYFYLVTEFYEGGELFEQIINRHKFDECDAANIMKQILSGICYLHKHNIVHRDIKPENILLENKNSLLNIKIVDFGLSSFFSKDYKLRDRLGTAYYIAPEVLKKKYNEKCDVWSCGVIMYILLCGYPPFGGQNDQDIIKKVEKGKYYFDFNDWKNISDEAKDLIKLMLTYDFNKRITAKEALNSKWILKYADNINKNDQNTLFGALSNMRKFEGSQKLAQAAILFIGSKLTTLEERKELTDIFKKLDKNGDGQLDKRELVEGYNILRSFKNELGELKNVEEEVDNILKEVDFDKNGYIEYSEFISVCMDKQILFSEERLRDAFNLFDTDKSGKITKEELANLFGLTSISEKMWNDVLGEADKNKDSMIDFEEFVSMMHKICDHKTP

## CN1CCC(Nc2ccc3ncc(-c4ccc(Nc5ncccc5F)cc4)n3n2)CC1 [Compound 3]
[1]
  mlogD: 3.2
[2]; n = 3
  IC50: < 10 nM

## Fc1cccnc1Nc1ccc(-c2cnc3ccc(NC4CCC(N5CCCC5)CC4)nn23)cn1 (centres unmarked) [Compound 4]
[1]
  mlogD: 2.8
[3]; n = 3
  IC50: 43 nM
[2]; n = 3
  IC50: < 10 nM

## Fc1cccnc1Nc1ccc(-c2cnc3ccc(NC4CCC(N5CCCC5)CC4)nn23)cc1 (centres unmarked) [Compound 5]
[1]
  mlogD: 3.3

## CC(=O)Nc1cccc(-c2cnc3ccc(NCCc4ccccn4)nn23)c1 [Compound 10]
[4]; Rh-ParM
  IC50 ratio (IC50 with 1 mM ATP/IC50 with 30 μM ATP): 27
[4]; [8]
  IC50: 64 nM
[4]; [9]
  IC50: 1700 nM
[5]
  IC50: 65 nM
[6]
  IC50 ratio (ATP depletion/radiometric assay): 2.7
  IC50: 24 nM

## CC(=O)Nc1cccc(-c2cnc3ccc(NCCc4cccnc4)nn23)c1 [Compound 11]
[4]; Rh-ParM
  IC50 ratio (IC50 with 1 mM ATP/IC50 with 30 μM ATP): 28
[4]; [8]
  IC50: 49 nM
[4]; [9]
  IC50: 1380 nM
[5]
  IC50: 65 nM
[6]
  IC50 ratio (ATP depletion/radiometric assay): 3.0
  IC50: 22 nM

## COc1ccc2ncc(-c3ccc(C(=O)NCc4ccccc4)cc3)n2n1 [Compound 12]
[4]; Rh-ParM
  IC50 ratio (IC50 with 1 mM ATP/IC50 with 30 μM ATP): 37
[4]; [8]
  IC50: 107 nM
[4]; [9]
  IC50: 3910 nM
[5]
  IC50: 200 nM
[6]
  IC50 ratio (ATP depletion/radiometric assay): 5.9
  IC50: 34 nM

## N#Cc1cccc(-c2cnn3ccc(NCCc4cccnc4)nc23)c1 [Compound 13]
[4]; Rh-ParM
  IC50 ratio (IC50 with 1 mM ATP/IC50 with 30 μM ATP): 17
[4]; [8]
  IC50: 212 nM
[4]; [9]
  IC50: 3580 nM

## CC(=O)Nc1cccc(-c2cnn3ccc(NCCc4cccnc4)nc23)c1 [Compound 14]
[4]; Rh-ParM
  IC50 ratio (IC50 with 1 mM ATP/IC50 with 30 μM ATP): 27
[4]; [8]
  IC50: 28 nM
[4]; [9]
  IC50: 745 nM
[5]
  IC50: 52 nM
[6]
  IC50 ratio (ATP depletion/radiometric assay): 3.5
  IC50: 15 nM

## NC(=O)c1ccc(-c2cnn3ccc(NCCc4cccnc4)nc23)cc1 [Compound 15]
[4]; Rh-ParM
  IC50 ratio (IC50 with 1 mM ATP/IC50 with 30 μM ATP): 12
[4]; [8]
  IC50: 23 nM
[4]; [9]
  IC50: 270 nM
[5]
  IC50: 32 nM
[6]
  IC50 ratio (ATP depletion/radiometric assay): 2.7
  IC50: 12 nM

## O=C(NCc1ccc(N2CCCC2)cc1)c1ccc(-n2cnc3cccnc32)cc1 [Compound 16]
[4]; Rh-ParM
  IC50 ratio (IC50 with 1 mM ATP/IC50 with 30 μM ATP): 39
[4]; [8]
  IC50: 77 nM
[4]; [9]
  IC50: 2970 nM

## O=C(NCc1cccc(N2CCCC2)c1)c1ccc(-n2cnc3cccnc32)cc1 [Compound 17]
[4]; Rh-ParM
  IC50 ratio (IC50 with 1 mM ATP/IC50 with 30 μM ATP): 27
[4]; [8]
  IC50: 51 nM
[4]; [9]
  IC50: 1380 nM

## CC(C)Oc1ccc(CNC(=O)c2ccc(-n3cnc4cccnc43)cc2)cc1 [Compound 18]
[4]; Rh-ParM
  IC50 ratio (IC50 with 1 mM ATP/IC50 with 30 μM ATP): 53
[4]; [8]
  IC50: 86 nM
[4]; [9]
  IC50: 4530 nM

## CN(C(=O)c1cc(COc2ccc(-n3cncn3)cc2)on1)C1CCCCC1 [Compound 19]
[4]; Rh-ParM
  IC50 ratio (IC50 with 1 mM ATP/IC50 with 30 μM ATP): 336
[4]; [8]
  IC50: 72 nM
[4]; [9]
  IC50: 24200 nM

## CN(C(=O)c1cc(COc2ccc(-n3ccnc3)cc2)on1)C1CCCCC1 [Compound 20]
[4]; Rh-ParM
  IC50 ratio (IC50 with 1 mM ATP/IC50 with 30 μM ATP): 44
[4]; [8]
  IC50: 728 nM
[4]; [9]
  IC50: 31700 nM

## Cc1c(C(=O)N(C)C2CCCCC2)noc1COc1ccc(-n2cncn2)cc1 [Compound 21]
[4]; Rh-ParM
  IC50 ratio (IC50 with 1 mM ATP/IC50 with 30 μM ATP): 41
[4]; [8]
  IC50: 143 nM
[4]; [9]
  IC50: 5930 nM

## CCc1ccccc1NC(=O)CSc1nccn(-c2ccc(OC)cc2)c1=O [Compound 22]
[4]; Rh-ParM
  IC50 ratio (IC50 with 1 mM ATP/IC50 with 30 μM ATP): >3
[4]; [8]
  IC50: 34200 nM
[4]; [9]
  IC50: > 100000 nM

## COc1ccc(NC(=O)CSc2nccn(-c3ccc(OC)cc3)c2=O)cc1 [Compound 23]
[4]; Rh-ParM
  IC50 ratio (IC50 with 1 mM ATP/IC50 with 30 μM ATP): >3
[4]; [8]
  IC50: 39800 nM
[4]; [9]
  IC50: > 100000 nM

## COc1ccc(-n2ccnc(SCC(=O)Nc3ccc(C)cc3C)c2=O)cc1 [Compound 24]
[4]; Rh-ParM
  IC50 ratio (IC50 with 1 mM ATP/IC50 with 30 μM ATP): >3
[4]; [8]
  IC50: 31200 nM
[4]; [9]
  IC50: > 100000 nM

## CC(C)CCNc1cc(-c2cnc3ccc(NC4CCN(C)CC4)nn23)ccn1 [Compound 27]
[4]; [10]
  IC50: 138 nM
[3]
  IC50 ratio PbCDPK1/PfCDPK1: 3.5
[3]; ATP at Km, n = 2
  IC50: 479 nM
[2]
  IC50 ratio PvCDPK1/PfCDPK1: 0.5
[2]; ATP at Km, n = 2
  IC50: 68 nM

## CN1CCC(Nc2ccn3ncc(-c4cccc(NC(=O)c5ccccc5)c4)c3n2)CC1 [Compound 28]
[4]; [10]
  IC50: 40 nM
[3]
  IC50 ratio PbCDPK1/PfCDPK1: 3.8
[3]; ATP at Km, n = 2
  IC50: 152 nM
[2]
  IC50 ratio PvCDPK1/PfCDPK1: 0.6
[2]; ATP at Km, n = 2
  IC50: 24 nM

## CC(C)CNc1ncc(-c2cnc3ccc(NC4CCC(N)CC4)nn23)cn1 (centres unmarked) [Compound 29]
[4]; [10]
  IC50: 86 nM
[3]
  IC50 ratio PbCDPK1/PfCDPK1: 4.6
[3]; ATP at Km, n = 2
  IC50: 392 nM
[2]
  IC50 ratio PvCDPK1/PfCDPK1: 0.9
[2]; ATP at Km, n = 2
  IC50: 80 nM

## c1nc(NCC2CC2)ncc1-c1cnc2ccc(NC3CCNCC3)nn12 [Compound 40]
[4]; [10]
  IC50: 52 nM
[3]
  IC50 ratio PbCDPK1/PfCDPK1: 4.8
[3]; ATP at Km, n = 2
  IC50: 249 nM
[2]
  IC50 ratio PvCDPK1/PfCDPK1: 0.9
[2]; ATP at Km, n = 2
  IC50: 48 nM

## CC(C)CCNc1ccc(-c2cnn3ccc(NC4CCN(C)C4)nc23)cn1 (centres unmarked) [Compound 41]
[4]; [10]
  IC50: 73 nM
[3]
  IC50 ratio PbCDPK1/PfCDPK1: 2.8
[3]; ATP at Km, n = 2
  IC50: 206 nM
[2]
  IC50 ratio PvCDPK1/PfCDPK1: 0.9
[2]; ATP at Km, n = 2
  IC50: 68 nM

## CC(C)CCNc1ncc(-c2cnn3ccc(NC4CCN(C)C4)nc23)cn1 (centres unmarked) [Compound 42]
[4]; [10]
  IC50: 109 nM
[3]
  IC50 ratio PbCDPK1/PfCDPK1: 3.2
[3]; ATP at Km, n = 2
  IC50: 350 nM
[2]
  IC50 ratio PvCDPK1/PfCDPK1: 0.9
[2]; ATP at Km, n = 2
  IC50: 99 nM

## c1ccc(-n2cc(-c3cnc4ccc(NC5CCNCC5)nn34)cn2)cc1 [Compound 44]
[4]; [10]
  IC50: 107 nM
[3]
  IC50 ratio PbCDPK1/PfCDPK1: 4.3
[3]; ATP at Km, n = 2
  IC50: 463 nM
[2]
  IC50 ratio PvCDPK1/PfCDPK1: 0.6
[2]; ATP at Km, n = 2
  IC50: 59 nM

## CN(C)C1CCN(c2ccc3ncc(-c4cnc(Nc5ncccc5F)nc4)n3n2)C1 (centres unmarked) [Compound 45]
[4]; [10]
  IC50: 19 nM
[3]
  IC50 ratio PbCDPK1/PfCDPK1: 3.0
[3]; ATP at Km, n = 2
  IC50: 58 nM
[2]
  IC50 ratio PvCDPK1/PfCDPK1: 1.0
[2]; ATP at Km, n = 2
  IC50: 19 nM

## Fc1cccnc1Nc1ncc(-c2cnc3ccc(NC4CCC(N5CCNCC5)CC4)nn23)cn1 (centres unmarked) [Compound 46]
[4]; [10]
  IC50: 13 nM
[3]
  IC50 ratio PbCDPK1/PfCDPK1: 2.8
[3]; ATP at Km, n = 2
  IC50: 38 nM
[2]
  IC50 ratio PvCDPK1/PfCDPK1: 0.8
[2]; ATP at Km, n = 2
  IC50: 11 nM

## O=C(NCc1ccccc1)c1ccc(-c2cnc3ccc(NCCc4cccnc4)nn23)cc1 [Compound 47]
[5]
  IC50: 27 nM
[6]
  IC50 ratio (ATP depletion/radiometric assay): 3.9
  IC50: 7 nM

## c1cncc(CCNc2ccc3ncc(-c4ccc5c(c4)OCO5)n3n2)c1 [Compound 50]
[5]
  IC50: 41 nM
[6]
  IC50 ratio (ATP depletion/radiometric assay): 4.1
  IC50: 10 nM

## CCc1nc(N)nc(N)c1-c1ccc(Cl)cc1 [Pyrimethamine, reference compound]
[7]
  EC50: 8 nM

## C[C@@H]1CC[C@H]2[C@@H](C)C(=O)O[C@@H]3O[C@@]4(C)CC[C@@H]1[C@]32OO4 [artemisinin, reference compound]
[7]
  EC50: 13 nM
